According to patent publication US9546164B2 (GENENTECH, INC., priority 2013, dated 2017):
Where a name gives a salt, the structure may show the parent alone. Read-outs that look alike come from different tables or passages of the source.

Target: hNav1.7 (Homo sapiens (Human), UniProt Q15858)
Assay: Tritiated sulfonamide competitive binding to membranes from cells expressing hNav1.7 and the β1 subunit;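 further: Filter-bound radioactivity counted by liquid scintillation, nonspecific binding defined with excess unlabelled ligand, IC50 fitted to percent inhibition of specific binding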
[1] = read-out: Ligand Binding Assay, 100 pM [3H]compound, membranes with hNav1.7 and β1 subunit, 18 h, room temperature

Chain of hNav1.7 (Q15858 other isoform, or with tags, fused parts or gaps): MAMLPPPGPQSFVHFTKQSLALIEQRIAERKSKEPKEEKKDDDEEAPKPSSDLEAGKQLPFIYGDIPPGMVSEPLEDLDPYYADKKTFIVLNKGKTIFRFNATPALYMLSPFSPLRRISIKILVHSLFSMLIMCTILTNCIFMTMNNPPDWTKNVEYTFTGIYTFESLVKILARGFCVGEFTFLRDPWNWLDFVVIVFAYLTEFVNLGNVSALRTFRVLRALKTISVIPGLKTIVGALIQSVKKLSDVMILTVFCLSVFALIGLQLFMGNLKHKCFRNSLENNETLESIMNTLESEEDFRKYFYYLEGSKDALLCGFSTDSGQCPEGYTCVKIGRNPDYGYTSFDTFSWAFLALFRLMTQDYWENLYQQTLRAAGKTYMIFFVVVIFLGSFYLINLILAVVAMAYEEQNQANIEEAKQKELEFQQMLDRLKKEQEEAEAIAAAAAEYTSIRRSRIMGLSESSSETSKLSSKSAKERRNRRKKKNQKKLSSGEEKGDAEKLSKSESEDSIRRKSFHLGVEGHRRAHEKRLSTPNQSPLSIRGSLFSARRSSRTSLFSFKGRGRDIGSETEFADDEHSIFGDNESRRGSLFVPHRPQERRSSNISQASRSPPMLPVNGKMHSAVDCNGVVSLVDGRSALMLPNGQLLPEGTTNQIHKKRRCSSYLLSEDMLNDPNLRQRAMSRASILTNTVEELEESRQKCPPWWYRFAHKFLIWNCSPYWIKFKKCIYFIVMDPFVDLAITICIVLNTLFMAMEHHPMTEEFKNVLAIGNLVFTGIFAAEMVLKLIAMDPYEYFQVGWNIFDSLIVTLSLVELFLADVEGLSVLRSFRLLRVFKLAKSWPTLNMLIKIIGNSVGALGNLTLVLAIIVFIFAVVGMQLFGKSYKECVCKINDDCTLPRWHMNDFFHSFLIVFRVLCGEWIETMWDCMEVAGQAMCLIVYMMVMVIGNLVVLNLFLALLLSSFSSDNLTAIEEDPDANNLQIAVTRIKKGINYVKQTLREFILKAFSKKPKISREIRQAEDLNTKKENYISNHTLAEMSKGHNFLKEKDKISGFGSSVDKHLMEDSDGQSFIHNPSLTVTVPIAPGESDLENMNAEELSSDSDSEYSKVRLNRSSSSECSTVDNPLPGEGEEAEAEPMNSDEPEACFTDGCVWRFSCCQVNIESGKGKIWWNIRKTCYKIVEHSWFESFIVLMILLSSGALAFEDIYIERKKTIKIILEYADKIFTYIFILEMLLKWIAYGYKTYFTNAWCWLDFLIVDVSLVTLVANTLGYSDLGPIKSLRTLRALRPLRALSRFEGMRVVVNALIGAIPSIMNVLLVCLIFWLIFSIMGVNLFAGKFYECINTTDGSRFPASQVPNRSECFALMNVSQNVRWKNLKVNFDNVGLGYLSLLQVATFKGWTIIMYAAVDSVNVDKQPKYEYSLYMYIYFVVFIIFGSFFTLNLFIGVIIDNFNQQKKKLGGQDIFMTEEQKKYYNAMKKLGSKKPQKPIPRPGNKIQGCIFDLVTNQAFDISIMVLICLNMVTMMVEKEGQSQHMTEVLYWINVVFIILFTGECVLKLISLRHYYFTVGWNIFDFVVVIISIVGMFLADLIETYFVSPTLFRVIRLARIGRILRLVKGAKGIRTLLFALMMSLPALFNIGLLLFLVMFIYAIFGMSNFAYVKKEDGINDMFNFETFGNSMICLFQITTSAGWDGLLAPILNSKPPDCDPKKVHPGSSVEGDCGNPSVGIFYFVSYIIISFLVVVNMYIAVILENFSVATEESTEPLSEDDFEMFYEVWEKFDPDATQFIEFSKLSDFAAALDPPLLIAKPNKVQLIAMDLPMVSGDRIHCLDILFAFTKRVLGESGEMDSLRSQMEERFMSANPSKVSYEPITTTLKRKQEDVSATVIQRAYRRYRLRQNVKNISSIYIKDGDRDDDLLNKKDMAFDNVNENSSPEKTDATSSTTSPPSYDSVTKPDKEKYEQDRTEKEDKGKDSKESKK
Chain of hNav1.7 (Q07699 19-218 partner): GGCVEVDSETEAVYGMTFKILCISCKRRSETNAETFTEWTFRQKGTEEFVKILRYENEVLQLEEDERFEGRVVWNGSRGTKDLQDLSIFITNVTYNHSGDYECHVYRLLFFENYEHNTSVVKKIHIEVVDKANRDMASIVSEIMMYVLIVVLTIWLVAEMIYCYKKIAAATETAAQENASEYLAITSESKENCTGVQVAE

Compound	IC50 [1]	IC50
O=C(NS(=O)(=O)N1CCC1)c1cc(C2CC2)c(OCC2CC3CCC(C2)N3Cc2ccccc2Cl)cc1F (centres unmarked) [Example 47, N-(azetidin-1-ylsulfonyl)-4-((8-(2-chlorobenzyl)-8-azabicyclo[3.2.1]octan-3-yl)methoxy)-5-cyclopropyl-2-fluorobenzamide]	25.1 nM	
C[C@@H](c1cc(F)cc(C(F)(F)F)c1)N1CCC(C)(COc2cc(F)c(C(=O)NS(C)(=O)=O)cc2C2CC2)CC1 (single isomer, unassigned) [Example 171]	5 nM	
CS(=O)(=O)NC(=O)c1cc(C2CC2)c(O[C@@H]2CCCN(c3cc(Cl)cc(Cl)c3)C2)cc1F [Example 44, (R)-5-cyclopropyl-4-((1-(3,5-dichlorophenyl)piperidin-3-yl)oxy)-2-fluoro-N-(methylsulfonyl)benzamide]		3.6 nM
CS(=O)(=O)NC(=O)c1cc(C2CC2)c(CN2CCC(Oc3ccc(Cl)c(Cl)c3)CC2)cc1F [Example 509, 5-cyclopropyl-4-((4-(3,4-dichlorophenoxy)piperidin-1-yl)methyl)-2-fluoro-N-(methylsulfonyl)benzamide, trifluoroacetic acid salt)]		13.1 nM
COc1ccc(CN2CCC[C@@H](Oc3cc(F)c(C(=O)NS(C)(=O)=O)cc3C3CC3)C2)c(Cl)c1 [Example 432, (R)-4-((1-(2-chloro-4-methoxybenzyl)piperidin-3-yl)oxy)-5-cyclopropyl-2-fluoro-N-(methylsulfonyl)benzamide, trifluoroacetic acid salt]	3.3 nM	
CC1(COc2cc(F)c(C(=O)NS(=O)(=O)C3CC3)cc2C2CC2)CCN(c2cc(C(F)(F)F)c(Cl)cn2)CC1 [Example 557, 4-((1-(5-chloro-4-(trifluoromethyl)pyridin-2-yl)-4-methylpiperidin-4-yl)methoxy)-5-cyclopropyl-N-(cyclopropylsulfonyl)-2-fluorobenzamide]	2.7 nM	
CC(c1ccc(OC(F)(F)F)cc1)N1CCC(COc2cc(F)c(C(=O)NS(C)(=O)=O)cc2C2CC2)CC1 (centres unmarked) [Example 156]	21 nM	
CS(=O)(=O)NC(=O)c1cc(C2CC2)c(OCC2CN([C@H](c3ccccc3)c3ccccc3Cl)C2)cc1F [Example 151, (R)-4-((1-((2-Chlorophenyl)(phenyl)methyl)azetidin-3-yl)methoxy)-5-cyclopropyl-2-fluoro-N-(methylsulfonyl)benzamide]	9.94 nM	
CS(=O)(=O)NC(=O)c1cc(C2CC2)c(OCC2CCN(CCC(F)(F)F)CC2)cc1F [Example 117, 5-Cyclopropyl-2-fluoro-N-(methylsulfonyl)-4-((1-(3,3,3-trifluoropropyl)piperidin-4-yl)methoxy)benzamide]	411 nM	
C[C@H](c1ccccc1)N1CC(COc2cc(F)c(C(=O)NS(C)(=O)=O)cc2C2CC2)C1 [Example 85, (R)-5-Cyclopropyl-2-fluoro-N-(methylsulfonyl)-4-((1-(1-phenylethyl)azetidin-3-yl)methoxy)benzamide]	1860 nM	
CS(=O)(=O)NC(=O)c1cc(C2CC2)c(OCC2CCN(Cc3ccc(Cl)c(C(F)(F)F)c3)CC2)cc1F [Example 229, 4-((1-(4-Chloro-3-(trifluoromethyl)benzyl)piperidin-4-yl)methoxy)-5-cyclopropyl-2-fluoro-N-(methylsulfonyl)benzamide]	7.3 nM	
O=C(NS(=O)(=O)C1CC1)c1cc(C2CC2)c(O[C@@H]2CCCN(C(c3ccccc3)c3ccccc3)C2)cc1F [Example 16, (R)-4-((1-benzhydrylpiperidin-3-yl)oxy)-5-cyclopropyl-N-(cyclopropylsulfonyl)-2-fluorobenzamide]		3.4 nM
CC[C@@H](c1cc(Cl)cc(Cl)c1)N1CCC(COc2cc(F)c(C(=O)NS(C)(=O)=O)cc2C2CC2)CC1 [Example 241, (S)-5-cyclopropyl-4-((1-(1-(3,5-dichlorophenyl)propyl)piperidin-4-yl)methoxy)-2-fluoro-N-(methylsulfonyl)benzamide]	2.7 nM	

The next lines start with the values.

IC50 [1]	IC50	Compound
45.1 nM		CS(=O)(=O)NC(=O)c1cc(C2CC2)c(OCC2CCN(Cc3ccc(Cl)cc3)CC2)cc1F [Example 104, 4-((1-(4-Chlorobenzyl)piperidin-4-yl)methoxy)-5-cyclopropyl-2-fluoro-N-(methylsulfonyl)benzamide]
3.3 nM		CS(=O)(=O)NC(=O)c1cc(C2CC2)c(OCC2CCN(CC3(C(F)(F)F)CCCC3)CC2)cc1F [Example 329, 5-cyclopropyl-2-fluoro-N-(methylsulfonyl)-4-((1-((1-(trifluoromethyl)cyclopentyl)methyl)piperidin-4-yl)methoxy)benzamide trifluoroacetic acid salt]
3.1 nM		CC1(COc2cc(F)c(C(=O)NS(=O)(=O)C3CC3)cc2C2CC2)CN(c2ncc(C(F)(F)F)cc2Cl)C1 [Example 481, 4-((1-(3-chloro-5-(trifluoromethyl)pyridin-2-yl)-3-methylazetidin-3-yl)methoxy)-5-cyclopropyl-N-(cyclopropylsulfonyl)-2-fluorobenzamide]
5.4 nM		5-cyclopropyl-2-fluoro-N-(methylsulfonyl)-4-((1-(6-(trifluoromethyl)pyridin-2-yl)piperidin-4-yl)methoxy)benzamide [Example 592]
2.6 nM		O=C(NS(=O)(=O)C1CC1)c1cc(C2CC2)c(O[C@@H]2CCCN(Cc3cc(Cl)cc(Cl)c3)C2)cc1F [Example 3, (R)-5-cyclopropyl-N-(cyclopropylsulfonyl)-4-((1-(3,5-dichlorobenzyl)piperidin-3-yl)oxy)-2-fluorobenzamide]
180 nM		O=C(NS(=O)(=O)N1CCC1)c1cc(C2CC2)c(OCC2CCN(CCC(F)(F)F)CC2)cc1F [Example 194, N-(azetidin-1-ylsulfonyl)-5-cyclopropyl-2-fluoro-4-((1-(3,3,3-trifluoropropyl)piperidin-4-yl)methoxy)benzamide]
13 nM		Cn1nc(C(F)(F)F)c(CN2CCC(COc3cc(F)c(C(=O)NS(=O)(=O)C4CC4)cc3C3CC3)CC2)c1Cl [Example 357, 4-((1-((5-chloro-1-methyl-3-(trifluoromethyl)-1H-pyrazol-4-yl)methyl)piperidin-4-yl)methoxy)-5-cyclopropyl-N-(cyclopropylsulfonyl)-2-fluorobenzamide, trifluoroacetic acid salt]
6 nM		CS(=O)(=O)NC(=O)c1cc(C2CC2)c(OCC2CCN(Cc3cc(C(F)(F)F)cc(C4CC4)n3)CC2)cc1F [Example 306, 5-cyclopropyl-4-((1-((6-cyclopropyl-4-(trifluoromethyl)pyridin-2-yl)methyl)piperidin-4-yl)methoxy)-2-fluoro-N-(methylsulfonyl)benzamide]
3.4 nM		O=C(NS(=O)(=O)N1CCC1)c1cc(C2CC2)c(OCC2CCN(Cc3cc(C(F)(F)F)cc(Cl)c3F)CC2)cc1F [Example 583, N-(azetidin-1-ylsulfonyl)-4-((1-(3-chloro-2-fluoro-5-(trifluoromethyl)benzyl)piperidin-4-yl)methoxy)-5-cyclopropyl-2-fluorobenzamide]
5.2 nM		O=C(NS(=O)(=O)C1CC1)c1cc(C2CC2)c(OCC2CCN(C3(c4cc(Cl)cc(Cl)c4)COC3)CC2)cc1F [Example 175, 5-Cyclopropyl-N-(cyclopropylsulfonyl)-4-((1-(3-(3,5-dichlorophenyl)oxetan-3-yl)piperidin-4-yl)methoxy)-2-fluorobenzamide]
4.4 nM		C[C@H](c1cc(F)cc(Cl)c1)N1CCC(COc2cc(F)c(C(=O)NS(C)(=O)=O)cc2C2CC2)CC1 (single isomer, unassigned) [Example 230]
49 nM		C[C@@H](c1cccc(F)c1)N1CCC(C)(COc2cc(F)c(C(=O)NS(C)(=O)=O)cc2C2CC2)CC1 (single isomer, unassigned) [Example 251]
3.4 nM		CS(=O)(=O)NC(=O)c1cc(C2CC2)c(O[C@@H]2CCCN(Cc3cccc(-c4ccccc4)c3)C2)cc1F [Example 443, (R)-4-((1-([1,1′-biphenyl]-3-ylmethyl)piperidin-3-yl)oxy)-5-cyclopropyl-2-fluoro-N-(methylsulfonyl)benzamide, trifluoroacetic acid salt]
	3.1 nM	CC1(C)CN(Cc2cc(F)c(C(=O)NS(=O)(=O)C3CC3)cc2C2CC2)CCC1Oc1cc(C(F)(F)F)c(Cl)cn1 (centres unmarked) [Example 562, 4-((4-((5-chloro-4-(trifluoromethyl)pyridin-2-yl)oxy)-3,3-dimethylpiperidin-1-yl)methyl)-5-cyclopropyl-N-(cyclopropylsulfonyl)-2-fluorobenzamide, trifluoroacetic acid salt]
2.02 nM		CCC(c1cc(Cl)cc(Cl)c1)N1CCC(COc2cc(F)c(C(=O)NS(C)(=O)=O)cc2C2CC2)CC1 (centres unmarked) [Example 155, 5-Cyclopropyl-4-((1-(1-(3,5-dichlorophenyl)propyl)piperidin-4-yl)methoxy)-2-fluoro-N-(methylsulfonyl)benzamide]
5.1 nM		CS(=O)(=O)NC(=O)c1cc(C2CC2)c(OCC2CCN(Cc3ccc(Br)c(Cl)c3)CC2)cc1F [Example 587, 4-((1-(4-bromo-3-chlorobenzyl)piperidin-4-yl)methoxy)-5-cyclopropyl-2-fluoro-N-(methylsulfonyl)benzamide]
32 nM		CS(=O)(=O)NC(=O)c1cc(C2CC2)c(OCC2CCN(Cc3ccccc3Cl)CC2)cc1F [Example 191, 4-((1-(2-Chlorobenzyl)piperidin-4-yl)methoxy)-5-cyclopropyl-2-fluoro-N-(methylsulfonyl)benzamide]
2.7 nM		CS(=O)(=O)NC(=O)c1cc(C2CC2)c(O[C@@H]2CCCN(CC3(C(F)(F)F)CCCC3)C2)cc1F [Example 327, (R)-5-cyclopropyl-2-fluoro-N-(methylsulfonyl)-4-((1-((1-(trifluoromethyl)cyclopentyl)methyl)piperidin-3-yl)oxy)benzamide]
3.4 nM		C[C@H](c1ccc(Cl)cc1Cl)N1CCC(COc2cc(F)c(C(=O)NS(C)(=O)=O)cc2C2CC2)CC1 [Example 239, (R)-5-cyclopropyl-4-((1-(1-(2,4-dichlorophenyl)ethyl)piperidin-4-yl)methoxy)-2-fluoro-N-(methylsulfonyl)benzamide]
